Measured values reported in patent publication US20060167084A1, “Delta-9-THC compositions and methods for treating symptoms associated with multiple sclerosis” (Unimed Pharmaceuticals, Inc., priority 2003, published 2006).

Legend:
[1] = system: patients with multiple sclerosis; test: Timed 10 meter walk; format: in vivo, human; details: baseline to follow-up (visit 7)
[2] = system: patients with multiple sclerosis; test: Adverse events reported by patients
[3] = system: spasticity related to multiple sclerosis; test: Ashworth score of spasticity, randomized placebo-controlled MS study; format: in vivo, human; details: baseline to 13 weeks' follow-up
[4] = system: patients with multiple sclerosis; test: Patient assessment of treatment benefit at visit 8; format: in vivo, human
[5] = system: patients with multiple sclerosis; test: Category-rating scales of symptoms (patient reported secondary outcomes); format: in vivo, human

Structure (SMILES): CCCCCc1cc(O)c2c(c1)OC(C)(C)[C@@H]1CCC(C)=C[C@@H]21 [delta-9-THC, (6aR-trans)-6a,7,8,10a-tetrahydro-6,6,9-trimethyl-3-pentyl-6H-dibenzo>b,d!pyran-1-ol]
- Reduction of median time taken to walk 10 meters [1]: 12%
- Incidences of MS relapse by comparison with placebo ([2]; in words): greatly reduced
- Adverse event: Blocked/insertion of suprapubic catheter ([2]; number of events reported): 0
- Adverse event: Constipation ([2]; number of events reported): 0
- Adverse event: Grand mal seizure ([2]; number of events reported): 0
- Adverse event: MS relapse or possible relapse ([2]; number of events reported): 1
- Adverse event: Other ([2]; number of events reported): 11
- Adverse event: Pneumonia ([2]; number of events reported): 2
- Adverse event: Urinary tract infection ([2]; number of events reported): 3
- Mean (SD) change in Ashworth score, lower-body muscle groups [3]: 1.39 (5.21)
- Mean (SD) change in Ashworth score, upper-body muscle groups [3]: 0.48 (4.70)
- Mean (SD) change in total Ashworth score (baseline minus follow-up) ([3]; all muscle groups): 1.86 (7.95)
- Symptom improvement Bladder: No, patients ([4]; visit 8, number of patients): 97
- Symptom improvement Bladder: Yes, patients ([4]; visit 8, number of patients): 67
- Symptom improvement Pain: No, patients ([4]; visit 8, number of patients): 64
- Symptom improvement Pain: Yes, patients ([4]; visit 8, number of patients): 64
- Symptom improvement Spasticity: No, patients ([4]; visit 8, number of patients): 73
- Symptom improvement Spasticity: Yes, patients ([4]; visit 8, number of patients): 108
- Symptom improvement Tremor: No, patients ([4]; visit 8, number of patients): 67
- Symptom improvement Tremor: Yes, patients ([4]; visit 8, number of patients): 44
- Symptom improvement Bladder: No ([4]; visit 8, percent of patients): (59%)
- Symptom improvement Bladder: Yes ([4]; visit 8, percent of patients): (40%)
- Symptom improvement Pain: No ([4]; visit 8, percent of patients): (50%)
- Symptom improvement Pain: Yes ([4]; visit 8, percent of patients): (50%)
- Symptom improvement Spasticity: No ([4]; visit 8, percent of patients): (40%)
- Symptom improvement Spasticity: Yes ([4]; visit 8, percent of patients): (60%)
- Symptom improvement Tremor: No ([4]; visit 8, percent of patients): (60%)
- Symptom improvement Tremor: Yes ([4]; visit 8, percent of patients): (40%)
- Depression: Deterioration, patients ([5]; number of patients): 42
- Depression: Improvement, patients ([5]; number of patients): 36
- Depression: Same, patients ([5]; number of patients): 47
- Energy: Deterioration, patients ([5]; number of patients): 49
- Energy: Improvement, patients ([5]; number of patients): 61
- Energy: Same, patients ([5]; number of patients): 63
- Irritability: Deterioration, patients ([5]; number of patients): 32
- Irritability: Improvement, patients ([5]; number of patients): 37
- Irritability: Same, patients ([5]; number of patients): 42
- Pain: Deterioration, patients ([5]; number of patients): 22
- Pain: Improvement, patients ([5]; number of patients): 64
- Pain: Same, patients ([5]; number of patients): 43
- Shake/tremor: Deterioration, patients ([5]; number of patients): 32
- Shake/tremor: Improvement, patients ([5]; number of patients): 52
- Shake/tremor: Same, patients ([5]; number of patients): 44
- Sleep: Deterioration, patients ([5]; number of patients): 24
- Sleep: Improvement, patients ([5]; number of patients): 71
- Sleep: Same, patients ([5]; number of patients): 57
- Spasms: Deterioration, patients ([5]; number of patients): 37
- Spasms: Improvement, patients ([5]; number of patients): 81
- Spasms: Same, patients ([5]; number of patients): 49
- Spasticity: Deterioration, patients ([5]; number of patients): 47
- Spasticity: Improvement, patients ([5]; number of patients): 89
- Spasticity: Same, patients ([5]; number of patients): 40
- Tiredness: Deterioration, patients ([5]; number of patients): 76
- Tiredness: Improvement, patients ([5]; number of patients): 35
- Tiredness: Same, patients ([5]; number of patients): 46
- Depression: Deterioration ([5]; percent of patients): (34%)
- Depression: Improvement ([5]; percent of patients): (29%)
- Depression: Same ([5]; percent of patients): (38%)
- Energy: Deterioration ([5]; percent of patients): (28%)
- Energy: Improvement ([5]; percent of patients): (35%)
- Energy: Same ([5]; percent of patients): (36%)
- Irritability: Deterioration ([5]; percent of patients): (29%)
- Irritability: Improvement ([5]; percent of patients): (33%)
- Irritability: Same ([5]; percent of patients): (38%)
- Pain: Deterioration ([5]; percent of patients): (17%)
- Pain: Improvement ([5]; percent of patients): (50%)
- Pain: Same ([5]; percent of patients): (33%)
- Shake/tremor: Deterioration ([5]; percent of patients): (25%)
- Shake/tremor: Improvement ([5]; percent of patients): (41%)
- Shake/tremor: Same ([5]; percent of patients): (34%)
- Sleep: Deterioration ([5]; percent of patients): (16%)
- Sleep: Improvement ([5]; percent of patients): (47%)
- Sleep: Same ([5]; percent of patients): (38%)
- Spasms: Deterioration ([5]; percent of patients): (22%)
- Spasms: Improvement ([5]; percent of patients): (49%)
- Spasms: Same ([5]; percent of patients): (29%)
- Spasticity: Deterioration ([5]; percent of patients): (27%)
- Spasticity: Improvement ([5]; percent of patients): (51%)
- Spasticity: Same ([5]; percent of patients): (23%)
- Tiredness: Deterioration ([5]; percent of patients): (48%)
- Tiredness: Improvement ([5]; percent of patients): (22%)
- Tiredness: Same ([5]; percent of patients): (29%)
